Reference: patent publication US20220304918A1, “Oral Compositions Comprising Hops And Sweeteners” (The Proctor & Gamble Company, priority 2021, published 2022)
Where a SMILES comes first, the peptide text is derived from it.

Experiment: Peak sweetness intensity perception relative to sucrose (potency-normalized comparison)
Set-up: key: Quick: display a peak sweetness intensity faster than that experienced for sucrose; Slow: display a peak sweetness intensity slower than that experienced for sucrose
Details: sucrose as reference
Excerpt: The sweeteners listed in TABLE 1 have been categorized with respect to their peak sweetness intensity perception relative to sucrose as either quick or slow. Those sweeteners that have been categorized as “quick” display a peak sweetness intensity faster than that experienced for sucrose. Those sweeteners that have been categorized as “slow” display a peak sweetness intensity slower than that experienced for sucrose. Comparisons of peak sweetness intensity are made using potency-normalized comparisons to account for the different amounts of each ingredient to experience the same absolute peak sweetness.

Row | Molecule | Onset Speed Relative to Sucrose
1 | CC1=CC(=O)NS(=O)(=O)O1 [Acesulfame K] | Quick
2 | COC(=O)[C@H](Cc1ccccc1)NC(=O)[C@@H](N)CC(=O)O [Aspartame] (H-Asp-Phe-OMe) | Slow
3 | OC[C@@H](O)[C@@H](O)CO [Erythritol] | Quick
4 | COC(=O)[C@H](Cc1ccccc1)NC(=O)[C@H](CC(=O)O)NCCC(C)(C)C [Neotame] | Slow
5 | O=C1NS(=O)(=O)c2ccccc21 [Saccharin] | Quick
6 | OC[C@@H](O)[C@@H](O)[C@H](O)[C@@H](O)CO [Sorbitol] | Quick
7 | OC[C@H]1O[C@H](O[C@]2(CCl)O[C@H](CCl)[C@@H](O)[C@@H]2O)[C@H](O)[C@@H](O)[C@H]1Cl [Sucralose] | Slow
8 | OC[C@@H](O)[C@H](O)[C@@H](O)CO [Xylitol] | Quick
9 | Steviosides | Slow
